Experimental data reported in paper PMC8459971, “Evaluation of the hepatotoxicity of the novel GPR40 (FFAR1) agonist CPL207280 in the rat and monkey” (PLoS ONE, 2021).
Several values for one entry are separate records, joined by “and”; a condition that tells them apart may be missing. Equal values may be shown once. Read-outs that look alike come from different tables or passages of the source.

Legend:
[1] = molecular target: T1, OAT1 (Homo sapiens, UniProt Q4U2R8); experiment: Uptake transporter inhibition assay, OAT1; settings: OAT1; reference inhibitor 300 µM;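 also: HEK293FT cells expressing OAT1 or mock, uptake of radiolabeled probe substrate at 37 °C in HBSS pH 7.4 with test compound or solvent, cell lysate read by liquid scintillation counting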
T1 sequence (Q4U2R8 1-563): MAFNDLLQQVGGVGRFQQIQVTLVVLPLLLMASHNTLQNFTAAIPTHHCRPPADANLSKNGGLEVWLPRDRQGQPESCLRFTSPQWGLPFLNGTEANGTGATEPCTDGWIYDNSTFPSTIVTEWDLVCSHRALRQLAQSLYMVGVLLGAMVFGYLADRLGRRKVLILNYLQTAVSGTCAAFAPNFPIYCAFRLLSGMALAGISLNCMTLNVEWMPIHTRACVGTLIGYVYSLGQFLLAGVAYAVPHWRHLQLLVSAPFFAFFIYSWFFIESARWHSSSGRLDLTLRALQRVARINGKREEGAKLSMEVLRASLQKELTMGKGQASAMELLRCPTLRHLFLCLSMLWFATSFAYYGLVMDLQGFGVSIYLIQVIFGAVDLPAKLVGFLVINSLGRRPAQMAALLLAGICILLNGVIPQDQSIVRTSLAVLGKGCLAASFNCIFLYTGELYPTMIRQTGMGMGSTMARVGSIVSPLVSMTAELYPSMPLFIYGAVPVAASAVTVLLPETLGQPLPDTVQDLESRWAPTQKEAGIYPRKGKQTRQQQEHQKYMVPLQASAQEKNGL
Method: (§2) For the uptake transporter inhibition assay, cells were washed twice with 100 μL of the appropriate buffer (HK, pH 7.4) for OATP1B1, followed by HBSS (pH 7.4) for (NTCP, OAT1, OAT2v1, OATP1A2, and OATP1B3). Uptake experiments were carried out at 37 ± 1°C in 50 μL of the respective buffer containing the probe substrate and the compound or solvent. […] After the experiment, cells were washed twice with 100 μL of cold appropriate buffer and lysed with 50 μL of 0.1 M NaOH. Radiolabeled probe substrate transport was determined by measuring an aliquot (35 μL) from each well for liquid scintillation counting.

[2] = molecular target: MRP2 (Homo sapiens, UniProt Q92887); experiment: Vesicular transport inhibition assay, MRP2; settings: MRP2; reference inhibitor 200 µM;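 also: membrane vesicles with probe substrate plus 2 mM glutathione, incubated with 4 mM ATP or AMP (AMP as background control), vesicle-retained substrate measured by liquid scintillation counting; ATP 4 mM vs AMP background separates transporter uptake from diffusion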
Method: In the vesicular transport inhibition assay (for BSEP, MRP) compounds were incubated with membrane vesicle preparations and the probe substrate. Incubations were carried out in the presence of 4 mM ATP or AMP to distinguish between transporter-mediated uptake and passive diffusion into the vesicles. For MRP2 and MRP3, reactions were carried out in the presence of 2 mM glutathione. Compounds were added to the reaction mixture in 0.75 μL of solvent (1% of the final incubation volume). […] Reactions were initiated by the addition of 25 μL of 12 mM MgATP (or 12 mM AMP in assay buffer as a background control) and preincubated separately. Reactions were quenched by the addition of 200 μL of ice-cold washing buffer and immediate filtration via glass fiber filters mounted on a 96-well plate (filter plate). The filters were washed (5 × 200 μL of ice-cold washing buffer), dried, and the amount of substrate inside the filtered vesicles was determined by liquid scintillation counting.

[3] = molecular target: T2, OAT2v1 (Homo sapiens, UniProt Q9Y694); experiment: Uptake transporter inhibition assay, OAT2v1; format: cell-based; settings: OAT2v1; reference inhibitor 300 µM
T2 construct: expressed in transfected cells; host or cells: HEK cells
T2 sequence (Q9Y694 1-546 isoform Q9Y694-2): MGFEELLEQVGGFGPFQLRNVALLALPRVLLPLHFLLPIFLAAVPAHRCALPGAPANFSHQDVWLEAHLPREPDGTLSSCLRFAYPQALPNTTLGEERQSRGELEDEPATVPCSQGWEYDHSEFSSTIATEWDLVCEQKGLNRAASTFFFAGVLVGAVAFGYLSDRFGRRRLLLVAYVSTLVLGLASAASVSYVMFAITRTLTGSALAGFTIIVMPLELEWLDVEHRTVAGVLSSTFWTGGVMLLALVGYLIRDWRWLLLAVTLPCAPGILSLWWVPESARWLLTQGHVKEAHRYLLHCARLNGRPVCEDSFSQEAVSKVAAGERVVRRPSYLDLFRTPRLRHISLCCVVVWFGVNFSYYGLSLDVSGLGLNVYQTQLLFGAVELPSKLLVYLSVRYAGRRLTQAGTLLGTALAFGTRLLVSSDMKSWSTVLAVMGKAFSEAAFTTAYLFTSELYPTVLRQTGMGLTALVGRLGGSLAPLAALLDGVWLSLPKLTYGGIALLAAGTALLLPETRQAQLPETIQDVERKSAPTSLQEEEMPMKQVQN
Method: (§1) For the uptake transporter inhibition assay, cells were washed twice with 100 μL of the appropriate buffer (HK, pH 7.4) for OATP1B1, followed by HBSS (pH 7.4) for (NTCP, OAT1, OAT2v1, OATP1A2, and OATP1B3). Uptake experiments were carried out at 37 ± 1°C in 50 μL of the respective buffer containing the probe substrate and the compound or solvent.

[4] = molecular target: OATP1A2 (Homo sapiens, UniProt P46721); experiment: Uptake transporter inhibition assay, OATP1A2; settings: OATP1A2; reference inhibitor 500 µM;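 also: cellular uptake of a radiolabeled probe substrate in HBSS pH 7.4 at 37 °C with test compound or solvent, measured by liquid scintillation counting of cell lysates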
Method: as §2

[5] = molecular target: T3, NTCP (Homo sapiens, UniProt Q14973); experiment: Uptake transporter inhibition assay, NTCP; format: cell-based; settings: NTCP; reference inhibitor 300 µM
T3 construct: expressed in transfected cells; host or cells: HEK cells
T3 sequence (Q14973 1-349): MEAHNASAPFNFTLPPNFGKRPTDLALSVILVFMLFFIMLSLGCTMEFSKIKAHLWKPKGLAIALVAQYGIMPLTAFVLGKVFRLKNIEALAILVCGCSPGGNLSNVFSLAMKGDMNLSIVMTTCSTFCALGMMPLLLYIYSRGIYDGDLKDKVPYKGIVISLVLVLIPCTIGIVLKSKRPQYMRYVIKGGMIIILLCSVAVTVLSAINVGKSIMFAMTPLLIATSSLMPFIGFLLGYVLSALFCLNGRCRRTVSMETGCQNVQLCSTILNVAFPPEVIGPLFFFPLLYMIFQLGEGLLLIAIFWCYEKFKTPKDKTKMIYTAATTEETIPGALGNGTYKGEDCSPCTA
Method: as §1

[6] = tested on: HepaRG spheroids; experiment: HepaRG 3D spheroids, cell and mitochondrial health markers, 14 days; settings: TIMEPOINT 336
[7] = HepaRG spheroid, at the concentration (uM) given
[8] = HepaRG spheroid, plotted value at the concentration given

Chain of OATP1A2 (P46721 whole entry): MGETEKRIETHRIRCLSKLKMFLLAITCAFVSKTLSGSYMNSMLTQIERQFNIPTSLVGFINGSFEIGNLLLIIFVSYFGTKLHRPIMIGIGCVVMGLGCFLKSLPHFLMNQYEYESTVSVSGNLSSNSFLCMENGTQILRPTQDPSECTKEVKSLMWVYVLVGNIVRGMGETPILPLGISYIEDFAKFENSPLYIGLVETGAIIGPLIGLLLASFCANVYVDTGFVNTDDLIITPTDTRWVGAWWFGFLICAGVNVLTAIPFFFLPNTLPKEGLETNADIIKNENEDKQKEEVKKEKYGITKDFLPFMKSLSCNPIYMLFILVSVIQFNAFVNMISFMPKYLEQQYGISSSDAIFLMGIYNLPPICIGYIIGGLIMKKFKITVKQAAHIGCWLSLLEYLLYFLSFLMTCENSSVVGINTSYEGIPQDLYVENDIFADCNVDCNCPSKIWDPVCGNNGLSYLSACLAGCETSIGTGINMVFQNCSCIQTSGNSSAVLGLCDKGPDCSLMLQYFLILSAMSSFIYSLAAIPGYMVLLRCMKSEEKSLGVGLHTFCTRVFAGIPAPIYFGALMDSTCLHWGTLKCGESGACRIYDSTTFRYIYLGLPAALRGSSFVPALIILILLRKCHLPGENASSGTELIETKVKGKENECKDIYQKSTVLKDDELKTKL
Chain of MRP2 (Q92887 whole entry, the tested form may be a part): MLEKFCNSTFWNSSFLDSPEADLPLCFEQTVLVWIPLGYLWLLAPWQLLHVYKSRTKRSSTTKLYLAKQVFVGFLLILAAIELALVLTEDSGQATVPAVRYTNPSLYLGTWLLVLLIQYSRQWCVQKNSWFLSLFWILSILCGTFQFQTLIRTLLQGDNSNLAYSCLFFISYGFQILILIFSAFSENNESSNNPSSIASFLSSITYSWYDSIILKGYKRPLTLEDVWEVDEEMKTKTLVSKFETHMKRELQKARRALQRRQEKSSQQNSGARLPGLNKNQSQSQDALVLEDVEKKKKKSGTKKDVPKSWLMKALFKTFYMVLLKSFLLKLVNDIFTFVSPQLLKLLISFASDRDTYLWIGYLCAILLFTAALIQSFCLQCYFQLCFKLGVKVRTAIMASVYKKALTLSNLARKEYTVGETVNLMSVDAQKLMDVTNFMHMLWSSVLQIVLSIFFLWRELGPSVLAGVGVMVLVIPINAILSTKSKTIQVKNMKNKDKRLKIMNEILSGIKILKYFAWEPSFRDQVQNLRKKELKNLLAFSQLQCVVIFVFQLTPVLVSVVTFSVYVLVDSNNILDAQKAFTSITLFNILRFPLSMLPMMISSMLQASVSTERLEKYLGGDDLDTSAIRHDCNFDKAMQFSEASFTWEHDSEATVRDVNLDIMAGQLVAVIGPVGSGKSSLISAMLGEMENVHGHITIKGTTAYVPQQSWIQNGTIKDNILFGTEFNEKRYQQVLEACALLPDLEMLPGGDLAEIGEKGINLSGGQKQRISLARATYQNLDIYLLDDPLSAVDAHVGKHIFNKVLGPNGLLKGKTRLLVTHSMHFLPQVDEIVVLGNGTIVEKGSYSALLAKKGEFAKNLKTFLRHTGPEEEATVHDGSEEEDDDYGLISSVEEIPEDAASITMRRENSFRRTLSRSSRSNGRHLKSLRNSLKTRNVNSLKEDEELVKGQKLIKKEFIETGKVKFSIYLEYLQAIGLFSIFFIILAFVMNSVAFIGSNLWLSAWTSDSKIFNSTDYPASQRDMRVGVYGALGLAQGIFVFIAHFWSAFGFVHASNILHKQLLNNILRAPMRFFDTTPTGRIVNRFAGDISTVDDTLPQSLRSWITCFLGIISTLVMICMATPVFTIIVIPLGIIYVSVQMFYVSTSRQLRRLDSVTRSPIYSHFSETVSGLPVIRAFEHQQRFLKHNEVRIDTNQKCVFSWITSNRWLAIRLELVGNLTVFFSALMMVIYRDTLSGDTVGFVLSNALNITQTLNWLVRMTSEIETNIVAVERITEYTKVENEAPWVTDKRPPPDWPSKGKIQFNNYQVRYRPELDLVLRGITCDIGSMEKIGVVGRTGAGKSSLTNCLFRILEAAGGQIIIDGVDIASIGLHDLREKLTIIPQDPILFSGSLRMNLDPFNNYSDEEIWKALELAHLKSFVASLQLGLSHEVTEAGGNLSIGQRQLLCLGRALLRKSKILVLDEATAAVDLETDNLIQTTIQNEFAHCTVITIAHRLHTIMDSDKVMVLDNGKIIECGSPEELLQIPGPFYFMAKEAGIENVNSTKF

## CCc1oc2ccccc2c1C(=O)c1cc(Br)c(O)c(Br)c1 [Benzbromarone]
[1]
  Accumulation (counts per minute; CPM) HEK293FT-MOCK: 48 CPM and 31 CPM and 32 CPM and 38 CPM
  Accumulation (counts per minute; CPM) HEK293FT-OAT1: 76 CPM and 82 CPM and 74 CPM and 83 CPM
[2]
  Accumulation (counts per minute; CPM) with AMP: 198 CPM and 209 CPM
  Accumulation (counts per minute; CPM) with ATP: 183 CPM and 176 CPM

## COc1ccc2c(c1)c(CC(=O)O)c(C)n2C(=O)c1ccc(Cl)cc1 [Indomethacin]
[3]
  Accumulation (counts per minute; CPM) HEK293FT-OAT2v1: 503 CPM and 467 CPM and 353 CPM and 367 CPM

## O=C1OC(c2ccc(O)c(S(=O)(=O)O)c2)(c2ccc(O)c(S(=O)(=O)O)c2)c2c(Br)c(Br)c(Br)c(Br)c21 [Sulfobromophthalein]
[4]
  Accumulation (counts per minute; CPM) HEK293FT-MOCK: 79 CPM and 76 CPM and 86 CPM
  Accumulation (counts per minute; CPM) HEK293FT-OATP1A2: 880 CPM and 817 CPM and 881 CPM and 862 CPM

## C[C@H](CCC(=O)NCCS(=O)(=O)O)[C@H]1CC[C@H]2[C@@H]3[C@H](O)C[C@@H]4C[C@H](O)CC[C@]4(C)[C@H]3CC[C@]12C [TCDC]
[5]
  Accumulation (counts per minute; CPM) HEK293-NTCP: 257 CPM and 289 CPM and 184 CPM and 282 CPM
  Accumulation (counts per minute; CPM) HEK293FT-MOCK: 24 CPM and 25 CPM and 21 CPM and 27 CPM

## N#CC(C#N)=NNc1cccc(Cl)c1 [carbonyl cyanide 3-chlorophenylhydrazone]
[6]; CONC 0.04 uM
  Cellular ATP Mean Plotted Value: 1.06
  DNA structure Mean Plotted Value: 0.942
  Glutathione content Mean Plotted Value: 0.925
  Mitochondrial mass Mean Plotted Value: 1.13
  Mitochondrial membrane potential Mean Plotted Value: 1.05
  Oxidative stress Mean Plotted Value: 1.02
  Spheroid count Mean Plotted Value: 1
  Spheroid size Mean Plotted Value: 1.01
[6]; CONC 0.1 uM
  Cellular ATP Mean Plotted Value: 1.01
  DNA structure Mean Plotted Value: 1.05
  Glutathione content Mean Plotted Value: 0.914
  Mitochondrial mass Mean Plotted Value: 1.06
  Mitochondrial membrane potential Mean Plotted Value: 1.15
  Oxidative stress Mean Plotted Value: 1
  Spheroid count Mean Plotted Value: 1
  Spheroid size Mean Plotted Value: 1.04
[6]; CONC 0.4 uM
  Cellular ATP Mean Plotted Value: 0.966
  DNA structure Mean Plotted Value: 1.07
  Glutathione content Mean Plotted Value: 0.993
  Mitochondrial mass Mean Plotted Value: 0.994
  Mitochondrial membrane potential Mean Plotted Value: 1.07
  Oxidative stress Mean Plotted Value: 0.993
  Spheroid count Mean Plotted Value: 1
  Spheroid size Mean Plotted Value: 0.969
[6]; CONC 1 uM
  Cellular ATP Mean Plotted Value: 0.843
  DNA structure Mean Plotted Value: 0.905
  Glutathione content Mean Plotted Value: 0.819
  Mitochondrial mass Mean Plotted Value: 1.11
  Mitochondrial membrane potential Mean Plotted Value: 0.995
  Oxidative stress Mean Plotted Value: 1.12
  Spheroid count Mean Plotted Value: 1
  Spheroid size Mean Plotted Value: 0.994
[6]; CONC 4 uM
  Cellular ATP Mean Plotted Value: 0.0197
  DNA structure Mean Plotted Value: 0.726
  Glutathione content Mean Plotted Value: 0.176
  Mitochondrial mass Mean Plotted Value: 0.851
  Mitochondrial membrane potential Mean Plotted Value: 0.876
  Oxidative stress Mean Plotted Value: 1.36
  Spheroid count Mean Plotted Value: 1
  Spheroid size Mean Plotted Value: 0.828
[6]; CONC 10 uM
  Cellular ATP Mean Plotted Value: -0.000228
  DNA structure Mean Plotted Value: 0.0956
  Glutathione content Mean Plotted Value: 0.111
  Mitochondrial mass Mean Plotted Value: 0.763
  Mitochondrial membrane potential Mean Plotted Value: 0.627
  Oxidative stress Mean Plotted Value: 1.36
  Spheroid count Mean Plotted Value: 1
  Spheroid size Mean Plotted Value: 0.751
[6]; CONC 40 uM
  Cellular ATP Mean Plotted Value: -0.000179
  DNA structure Mean Plotted Value: 0.0736
  Glutathione content Mean Plotted Value: 0.0824
  Mitochondrial mass Mean Plotted Value: 0.515
  Mitochondrial membrane potential Mean Plotted Value: 0.236
  Oxidative stress Mean Plotted Value: 0.339
  Spheroid count Mean Plotted Value: 1
  Spheroid size Mean Plotted Value: 0.674
[6]; CONC 100 uM
  Cellular ATP Mean Plotted Value: 8.57e-5
  DNA structure Mean Plotted Value: 0.0501
  Glutathione content Mean Plotted Value: 0.0467
  Mitochondrial mass Mean Plotted Value: 0.488
  Mitochondrial membrane potential Mean Plotted Value: 0.132
  Oxidative stress Mean Plotted Value: 0.234
  Spheroid count Mean Plotted Value: 1
  Spheroid size Mean Plotted Value: 0.58
[6]; HepaRG spheroid
  Cellular ATP MEC: 0.829 µM
  DNA structure MEC: 3.51 µM
  Glutathione content MEC: 0.876 µM
  Mitochondrial mass MEC: 6.35 µM
  Mitochondrial membrane potential MEC: 5.82 µM
  Oxidative stress MEC: 1.46 µM
  Spheroid size MEC: 2.63 µM
[6]; [7]
  Cellular ATP MR (% @ concentration): 100%
  DNA structure MR (% @ concentration): 95%
  Glutathione content MR (% @ concentration): 91%
  Mitochondrial mass MR (% @ concentration): 52%
  Mitochondrial membrane potential MR (% @ concentration): 88%
  Oxidative stress MR (% @ concentration): 37%
  Spheroid size MR (% @ concentration): 35%
[6]; [8]
  Cellular ATP MR: -0.000228
  DNA structure MR: 0.0501
  Glutathione content MR: 0.0824
  Mitochondrial mass MR: 0.515
  Mitochondrial membrane potential MR: 0.132
  Oxidative stress MR: 1.36
  Spheroid size MR: 0.674
[6]; read-out: Cellular ATP AC50, HepaRG spheroid
  AC50: 1.63 µM
[6]; read-out: DNA structure AC50, HepaRG spheroid
  AC50: 5.13 µM
[6]; read-out: Glutathione content AC50, HepaRG spheroid
  AC50: 2.19 µM
[6]; read-out: Mitochondrial mass AC50, HepaRG spheroid
  AC50: 35.7 µM
[6]; read-out: Mitochondrial membrane potential AC50, HepaRG spheroid
  AC50: 12.4 µM
[6]; read-out: Oxidative stress AC50, HepaRG spheroid
  AC50: 15.4 µM
[6]; read-out: Spheroid count AC50, HepaRG spheroid
  AC50: > 100 µM
[6]; read-out: Spheroid size AC50, HepaRG spheroid
  AC50: > 40 µM
